The numbers were not newly measured in US20190328869A1, “IMMUNOTHERAPEUTIC PRODUCT AND MDSC MODULATOR COMBINATION THERAPY” (Transgene SA, priority 2016, published 2019), which cites them from elsewhere.

Series [1] has as its system HBV-specific CD4+ and CD8+ T cells in PBMCs. Conditions: PBMCs from chronically HBV infected patients; cited from earlier work.
Series [2] concerns circulating CD33+HLA-DR− MDSCs. The following applies: patients with metastatic renal cell carcinoma; cited from earlier work.
The subject of a further series is circulating CD34+ MDSCs. Conditions: head and neck cancer patients; cited from earlier work.

Regarding `CC1=C(/C=C/C(C)=C/C=C/C(C)=C/C(=O)O)C(C)(C)CCC1` [ATRA, All-trans retinoic acid], the “proliferation and IFN-γ production by HBV-specific CD4+ and CD8+ T cells” value in series [1] is “restore the proliferation and IFN-γ production”. In addition, the “circulating CD33+HLA-DR− MDSCs” value in series [2] is listed as “decreased circulating CD33^+HLA-DR^− MDSCs”.
For the compound `C=C1CC[C@H](O)C/C1=C/C=C1\CCC[C@]2(C)[C@@H]([C@H](C)CCCC(C)(C)O)CC[C@@H]12` [25-hydroxyvitamin D3], in the series with circulating CD34+ MDSCs, the “circulating CD34+ MDSCs” value is recorded as “reduced the circulating CD34^+ MDSCs” and the clinical outcome was “failed to improve clinical outcome”.
